Results from ChEMBL document CHEMBL2007661, “Compounds: GSK PKIS; Assays: UNC Frye lab” (2012).
Values joined by “and” are separate entries in the source; they are usually repeats but may differ in a detail not shown here. Equal entries are not always repeated.

Tests used:
[1] = molecular target: T1, Inhibitor of nuclear factor kappa-B kinase subunit beta (Homo sapiens) (UniProt O14920); conditions: at 1 µM
T1 sequence (whole entry): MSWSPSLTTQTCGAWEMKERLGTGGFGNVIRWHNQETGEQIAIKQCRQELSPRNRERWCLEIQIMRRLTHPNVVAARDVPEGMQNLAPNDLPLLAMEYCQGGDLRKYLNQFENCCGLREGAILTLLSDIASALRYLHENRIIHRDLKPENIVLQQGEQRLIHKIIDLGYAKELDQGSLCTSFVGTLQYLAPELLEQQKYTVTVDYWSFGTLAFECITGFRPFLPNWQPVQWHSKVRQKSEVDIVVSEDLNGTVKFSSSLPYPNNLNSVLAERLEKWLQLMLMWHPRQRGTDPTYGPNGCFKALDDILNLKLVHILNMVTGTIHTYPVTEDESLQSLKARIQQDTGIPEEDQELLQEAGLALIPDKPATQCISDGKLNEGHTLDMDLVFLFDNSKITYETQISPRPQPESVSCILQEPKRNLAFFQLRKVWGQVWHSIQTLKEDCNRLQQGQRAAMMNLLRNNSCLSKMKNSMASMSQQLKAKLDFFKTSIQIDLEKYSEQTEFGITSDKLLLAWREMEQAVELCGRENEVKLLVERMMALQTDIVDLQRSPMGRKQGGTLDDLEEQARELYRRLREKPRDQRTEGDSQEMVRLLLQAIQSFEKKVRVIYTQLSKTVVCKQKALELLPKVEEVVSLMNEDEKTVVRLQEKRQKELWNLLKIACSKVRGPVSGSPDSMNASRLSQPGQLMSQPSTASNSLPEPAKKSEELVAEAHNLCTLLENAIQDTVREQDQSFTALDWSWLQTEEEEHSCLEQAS

[2] = molecular target: T2, Tyrosine-protein kinase Mer (Homo sapiens) (UniProt Q12866); conditions: at 10 µM
T2 sequence (whole entry): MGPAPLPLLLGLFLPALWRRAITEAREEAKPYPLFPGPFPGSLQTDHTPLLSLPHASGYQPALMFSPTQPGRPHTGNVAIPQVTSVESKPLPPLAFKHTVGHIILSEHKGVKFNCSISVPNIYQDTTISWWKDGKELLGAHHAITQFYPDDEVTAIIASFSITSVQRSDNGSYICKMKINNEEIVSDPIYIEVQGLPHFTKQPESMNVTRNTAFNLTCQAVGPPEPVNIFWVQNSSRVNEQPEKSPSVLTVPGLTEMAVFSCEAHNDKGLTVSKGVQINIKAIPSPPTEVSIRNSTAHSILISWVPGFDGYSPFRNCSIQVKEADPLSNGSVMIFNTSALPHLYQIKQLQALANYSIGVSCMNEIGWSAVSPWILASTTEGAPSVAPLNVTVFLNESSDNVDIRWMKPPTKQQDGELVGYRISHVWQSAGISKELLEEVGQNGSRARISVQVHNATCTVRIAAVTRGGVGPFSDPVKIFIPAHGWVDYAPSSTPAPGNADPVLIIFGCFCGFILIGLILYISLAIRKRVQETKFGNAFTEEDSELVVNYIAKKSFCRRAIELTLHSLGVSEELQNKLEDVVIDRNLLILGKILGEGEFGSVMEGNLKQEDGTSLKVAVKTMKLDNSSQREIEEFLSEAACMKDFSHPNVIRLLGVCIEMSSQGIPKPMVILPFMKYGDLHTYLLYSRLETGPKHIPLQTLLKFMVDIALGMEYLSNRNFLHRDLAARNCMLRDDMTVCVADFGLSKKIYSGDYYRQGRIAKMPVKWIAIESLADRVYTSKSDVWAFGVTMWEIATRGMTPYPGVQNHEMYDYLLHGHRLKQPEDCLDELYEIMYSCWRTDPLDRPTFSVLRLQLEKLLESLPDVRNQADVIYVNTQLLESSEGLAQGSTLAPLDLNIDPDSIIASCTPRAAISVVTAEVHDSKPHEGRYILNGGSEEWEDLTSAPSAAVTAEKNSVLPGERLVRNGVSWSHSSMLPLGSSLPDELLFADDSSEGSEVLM

inhibition [1]	inhibition [2] [%]	SMILES
0% and -1%	84	CS(=O)(=O)CCNCc1coc(-c2ccc3ncnc(Nc4ccc(OCc5ccccc5)cc4)c3c2)c1
4% and -2%	-2	CC1=C(C(=O)Nc2ccc3[nH]ncc3c2)C(c2ccc(F)cc2)NC(=O)N1 (stereo not drawn)
-3% and 3%	-6	CCn1c(-c2nonc2N)nc2c(C#CC(C)(C)O)nc(CN3CCCC3)cc21
-1% and -3%	-1	N#Cc1c(NC(=O)CN2CCOCC2)sc2c1CCCC2
-2% and 0%	92	Cc1nnc(-c2ccc(C)c(-c3ccc(C(=O)NCc4ccc(Cl)cc4)cc3)c2)o1
1% and 4%	-1	C[C@@H](Oc1cc(-n2cnc3ccc(OC[C@@H](O)CO)cc32)sc1C(N)=O)c1ccccc1Cl
-3% and -6%	-2	CCOc1ccc2c(-c3ccnc(Nc4cccc(C(F)(F)F)c4)n3)cnn2n1
-5% and -2%	-7	Cc1cc(-c2ccccn2)cc(C)c1/C=C/c1cncc(-c2nn[nH]n2)c1
-8% and -7%	-1	O=C1Nc2ccc(C(=O)c3ccco3)cc2C1=Cc1cc(Cl)c(O)c(Cl)c1
-3% and -2%	2	COc1ccc2c(-c3ccnc(Nc4cccc(OC(F)(F)F)c4)n3)cnn2n1
-1% and 2%	13	CCN(CC)S(=O)(=O)c1ccc(OC)c(Nc2ncc(-c3ccccc3)o2)c1
-5%	-4	Cc1ccc(NC(=O)c2ccoc2)cc1-c1ccc(C(=O)NCC2CC2)cc1
1% and -2%	-3	CNC(=O)c1cncc(/C=C/c2c(C)cccc2C)c1
3% and 0%	3	COc1ccccc1Nc1ncc(-c2ccccc2)o1
-4% and 2%	74	NS(=O)(=O)c1cccc(-c2cc3ccncc3cc2OCc2ccccc2)c1
-2%	16	NS(=O)(=O)c1ccc(N/N=C2\C(=O)Nc3ccc(-c4cnco4)cc32)cc1
6% and 3%	38	ON=C1CCc2cc(-c3nc(C4CCNCC4)[nH]c3-c3ccncc3)ccc21
-5% and -4%	-6	Cc1cc(O)cc(C)c1/C=C/c1cncc(C(N)=O)c1
-3% and -2%	-2	C/C(Nc1ccc(S(N)(=O)=O)cc1)=C1/C(=O)Nc2ccccc21
-8% and 5%	-5	CS(=O)(=O)CCNCc1cc(-c2cc3c(Nc4ccc(OCc5cccc(F)c5)c(Cl)c4)ncnc3s2)cs1

inhibition [1]	inhibition [2] [%]	SMILES
-2%	84	COc1cccc(-n2ncc3c(N/N=C/c4ccncc4)ncnc32)c1
4% and -1%	24	N#Cc1ccc2c(-c3ccnc(NC4CC4)n3)c(-c3ccc(F)cc3)nn2c1
-3% and 2%	1	CS(=O)(=O)Nc1ccc(-c2ccc3c(NC(=O)C4CC4)n[nH]c3c2)cc1
-1% and -5%	-5	Cc1ccc2c(-c3ccnc(Nc4ccc5c(c4)OCCO5)n3)c(-c3ccc(C(F)(F)F)cc3)nn2n1
-5% and -4%	10	O=C1Nc2ccccc2/C1=C/Nc1ccc(-n2cncn2)cc1
-3% and -2%	10	CN(C)c1cc2c(Nc3ccc4c(cnn4Cc4ccccc4)c3)ncnc2cn1
-3% and -2%	-2	FC(F)(F)c1cccc(-c2nn3ncccc3c2-c2ccnc(Nc3ccc4c(c3)OCCO4)n2)c1
-4% and -5%	-2	Cc1cc(O)cc(C)c1/C=C/c1cncc(-c2nn[nH]n2)c1
-3%	2	CN(C)c1ccc2c(c1)/C(=C/Nc1ccc(S(N)(=O)=O)cc1)C(=O)N2
-4% and 1%	-2	CCn1c(-c2nonc2N)nc2c(C#CC(C)(C)O)nc(OC[C@H](N)c3ccccc3)cc21
-4% and -1%	0	NS(=O)(=O)c1cccc(N/C=C2\C(=O)Nc3ccccc32)c1
8% and 3%	51	COc1cc2ncn(-c3cc(OCCc4ccccc4)c(C(N)=O)s3)c2cc1OC
-2% and 0%	-1	CC(=O)Nc1cccc(C#Cc2cncnc2Nc2ccc(OCc3cccc(F)c3)c(Cl)c2)c1
-7% and -4%	6	CCS(=O)(=O)c1ccc(OC)c(Nc2ncc(-c3ccccc3Cl)o2)c1
-1% and 4%	-4	COc1ccc2ncnc(Nc3ccc(OCc4ccccc4)cc3)c2c1
-2% and -3%	-3	CCOc1nccc2c1nc(-c1nonc1N)n2CC
-4% and -2%	-3	Fc1ccc(-c2cc(-c3c[nH]nc3-c3ccccn3)ccn2)cc1
-5% and -4%	1	COc1cccc(COc2cc(-n3cnc4ccccc43)sc2C(N)=O)c1
-3% and -4%	-7	CC(=O)NCc1cccc(C#Cc2cncnc2Nc2ccc(OCc3cccc(F)c3)c(Cl)c2)c1
-2% and 2%	79	NC(=O)c1cccc(Nc2nccc(Nc3cccc4[nH]ncc34)n2)c1

inhibition [1]	inhibition [2] [%]	SMILES
1% and 0%	-6	N#Cc1c(NC(=O)c2ccccc2F)sc2c1CCCC2
0% and -2%	10	Fc1ccc(-c2c(-c3ccncc3)nc3n2CCS3)cc1
1% and -2%	81	CCn1c(-c2nonc2N)nc2cncc(C(=O)NCCNC)c21
0% and -8%	-8	COc1cc2ncn(-c3cc(O[C@H](C)c4ccccc4Cl)c(C(N)=O)s3)c2cc1OC
-3% and -2%	1	CCCNc1cccc(-n2ncc3c(N/N=C/c4ccncc4)ncnc32)c1
-2% and -1%	-1	N#Cc1ccc(Oc2nccc(-c3c(-c4ccc(F)cc4)ncn3C3CCNCC3)n2)cc1
-2% and -3%	3	COc1ccc(CNC(=O)c2ccc(-c3cc(-c4nnc(C)o4)ccc3C)cc2)cc1
1% and 0%	100	O=C(O[C@H]1CN[C@H](C#Cc2cc3ncnc(Nc4ccc5c(ccn5Cc5cc(F)ccc5F)c4)c3s2)C1)N1CCOCC1
-4% and -2%	39	O=C(Nc1n[nH]c2nc(-c3ccc(O)cc3)c(Br)cc12)C1CC1
-5%	-1	CN1CCN(CCCNc2nc3ccc(Oc4ccc(NC(=O)Nc5cc(C(F)(F)F)ccc5F)cc4)cc3[nH]2)CC1
-6% and -9%	99	O=C1NC(=O)C(c2cccc(Cl)c2)=C1Nc1ccc(O)c(Cl)c1
3% and 0%	-1	CCS(=O)(=O)c1ccc(OC)c(Nc2ncc(-c3cccc(OC)c3)o2)c1
-6% and -2%	18	O=C1NC(=O)C(c2ccccc2Cl)=C1Nc1cccc(O)c1
2%	-1	Cc1ccc(NC(=O)c2ccnc(N3CCCC3)c2)cc1-c1ccc(C(=O)NCC2CC2)cc1
-3% and -2%	-5	NS(=O)(=O)c1ccc(NC=C2C(=O)Nc3ccc4ncsc4c32)cc1
0%	6	Cc1ccc(C(=O)NC2CC2)cc1-c1ccc2[nH]ncc2c1
-2%	0	COc1ccc2cc(-c3c(-c4ccncc4)nc(-c4ccc(S(C)(=O)=O)cc4C)n3C)ccc2c1
7% and -3%	58	Nc1ccc(C#Cc2cncnc2Nc2ccc(OCc3cccc(F)c3)c(Cl)c2)cc1
-3% and -4%	-9	CCn1c(-c2nonc2N)nc2c(C#CC(C)(C)O)nc(O[C@@H](CN)c3ccccc3)cc21
